Assay results published in publication PMC3543460, “Structure-Activity Relationships of the Antimicrobial Peptide Arasin 1 — And Mode of Action Studies of the N-Terminal, Proline-Rich Region” (PLoS ONE, 2013).
In brackets after ≈: the same amount, converted by molar mass. Peptide text beside a SMILES is read from it.

Legend:
E. coli HB101 [1] = assay: Membrane integrity assay II (propidium iodide, flow cytometry); assay type: cell-based, Escherichia coli; conditions: at MIC; PI flow cytometry
Description: The effect of arasin 1(1–23) and cecropin P1 on membrane permeabilization was also studied by measuring the percentage of propidium iodide (PI) positive cells by flow cytometry. Samples of 1×10^6 cells/ml of E. coli HB101 were incubated in 50% MH with peptides at 37°C for different time span. After incubation, PI (Sigma Aldrich, Saint Louis, MO, USA) was added to the peptide-treated bacteria at a final concentration of 10 µg/ml. The cells were analyzed after 4 min of incubation with PI at 37°C in the flow cytometer as described.

C. glutamicum ATCC 13032 = assay type: cell-based, Corynebacterium glutamicum; conditions: ATCC 13032, 24 h
Description: (§1) Escherichia coli (ATCC 25922), E. coli HB101, Pseudomonas aeruginosa (ATCC 27853), Staphylococcus aureus (ATCC 9144) and Corynebacterium glutamicum (ATCC 13032) were grown at 37°C in Mueller Hinton agar (MH; Difco Laboratories, Detroit, USA). The yeasts Candida albicans (ATCC 10231) and Saccharomyces cerevisiae spp and the mold Botrytis cinerea 101 [33] were cultivated on potato dextrose agar supplemented with 2% glucose at room temperature (RT).
(§2) Determination of the MIC against bacteria was performed by continuous monitoring of bacterial growth using a Bioscreen C microbiology reader (Labsystems Oy, Helsinki, Finland). The synthetic peptides were tested for antibacterial and antifungal activity at final concentrations (prepared from serial two-fold dilutions) ranging from 0.2 µM to 100 µM. The test was performed in 100-well flat-bottomed honeycomb plates, in which 50 µl peptide solution was incubated with 50 µl of a suspension of an actively growing culture of bacteria diluted to a starting concentration of 2.5×10^5 CFU/ml in Mueller Hinton Broth (MHB). The growth chamber was maintained at 37°C during the incubation period. The absorbance was measured by a turbidometric method with vertical light photometry and a wide band filter (420–580 nm). MIC was defined as the lowest concentration resulting in no visible bacterial growth after 24 h.

S. aureus ATCC 9144 = assay type: cell-based, Staphylococcus aureus; conditions: ATCC 9144, 24 h
Description: as §1, §2

E. coli ATCC 25922 = assay type: cell-based, Escherichia coli; conditions: ATCC 25922, 24 h
Description: as §1, §2

B. cinerea 101 = assay type: cell-based, Botrytis cinerea
Description: as §1
(§3) Fungal spores were dissolved in potato dextrose broth (Difco, Lawrence, KS, USA) and the cell concentration was determined and adjusted after counting in a Bürker chamber. Botrytis cinerea was filtered through a piece of cotton before counting. An aliquot of 50 µl of fungal spores (final concentration 2×10^5 spores/ml) were inoculated in 96-well Nunclon™ microtitre plates (Nagle Nunc Int. Roskilde, Denmark) along with 50 µl of synthetic peptide dissolved in Milli-Q water. Cultures were grown in a dark moist chamber without shaking at 20°C for S. cerevisiae and B. cinerea, and at 37°C for C. albicans. Growth inhibition was determined microscopically after 48 h of incubation. Inhibitory concentrations (IC50) was defined as the lowest concentration tested which yielded less than 50% visible growth compared to the growth control (fungi). Each peptide was tested in parallels in three individual runs for the antimicrobial assays.

Gram-negative bacteria = conditions: cited from earlier work
Description: The high standard deviation values only observed at 20 µM (5×MIC) for both the viability assay (Fig. 3) and the membrane integrity assay (Fig. 6) indicate that activity around this concentration was very sensitive to individual assay conditions.

E. coli HB101 [2] = assay: Bactericidal assay (killing kinetics, colony counts); assay type: cell-based, Escherichia coli; conditions: 50% MHB, 1×10^6 CFU/ml, 37°C
Description: During incubation, aliquots were removed at different time intervals, washed in buffered high salt solution (10 mM Na-phosphate, 400 mM NaCl, 10 mM MgCl2), diluted and plated on MH plates. The number of bacterial CFU was determined after approximately 48 h of incubation at 37°C.

[3] = system: E. coli HB101 constitutively expressing the luxCDABE operon; assay: Cell viability assay (luxCDABE luminescence); assay type: cell-based, Escherichia coli; conditions: at MIC, within the first 10 min after addition of peptide; 50% MH, OD600 0.2, 30°C
Description: E.coli HB101 was transformed with the plasmid pCGLS-11 to enable constitutive bacterial luciferase expression from the luxCDABE operon. The resulting strain was used for cell viability assays as follows. An overnight culture in MH medium with ampicillin (100 µg/ml) was pelleted at 3000×g for 10 min and washed in MH medium before re-suspending the cells in 50% MH medium with a final OD600 of approximately 0.2. After 30 min of incubation at 30°C the cells were again adjusted to an OD600 of 0.2. An aliquot of 95 µl of bacterial solution was dispensed into each well of a black 96 well microtiter plate with transparent bottom (Falcon, Bredford, MA, USA). To achieve the indicated concentrations, a multi-channel pipette was used to add 5 µl of a two-fold dilution series of peptide solution in water to 8 wells simultaneously. The plate was loaded into a Perkin-Elmer Envision microtiter plate reader immediately after addition of the peptide (arasin 1(1–23), PR-39(1–26) or cecropin P1) and the measurement started 30 sec later because of handling events and 2 seconds of shaking inside the plate reader. Light production and growth (OD595) of the sensor bacteria was followed for 3 h under repeated shaking cycles before each measurement at 30°C.

S. cerevisiae spp. = assay type: cell-based, Saccharomyces cerevisiae; conditions: 48 h
Description: as §1, §3

P. aeruginosa ATCC 27853 = assay type: cell-based, Pseudomonas aeruginosa; conditions: ATCC 27853, 24 h
Description: as §1, §2

E. coli HB101 [4] = assay: Antibacterial MIC assay (Bioscreen C growth monitoring); assay type: cell-based, Escherichia coli; conditions: 50% MH
Description: as §1, §2

C. albicans ATCC 10231 = assay type: cell-based, Candida albicans; conditions: ATCC 10231, 48 h
Description: as §1, §3

E. coli = assay: Antimicrobial activity at varied MH concentration; assay type: cell-based, Escherichia coli; conditions: results not shown
Source text: In contrast to the results from E. coli and P. aeruginosa, the C-terminal part of arasin 1(1–23) alone arasin 1(7–23) and 1(9–23) inhibits C. glutamicum and all the fungi. At the same time this antibacterial and antifungal activity is strictly dependent on a fragment between aa 13–23. This indicates a somewhat different mode of action for Gram- negative and Gram-positive bacteria, respectively. Likewise the mode of action against fungi is likely different. It is tempting to speculate that the N-terminal 5–10 amino acids might be involved in arasin 1(1–23) transfer across the outer membrane while the C-terminal part might bind the molecular target which is responsible for growth inhibition at low concentrations. The antimicrobial assays were all performed in MH or potato dextrose medium at a final concentration of 50% strength for bacteria and fungi, respectively. […] This means that the peptides are very sensitive to medium composition, and perhaps also salinity and/or ionic strength. […] In some studies, the use of diluted or poor medium instead of rich medium in MIC and mode of action studies is claimed to increase the sensitivity of the assays, [47]. The reasons of the medium-dependence have not been further evaluated, and 50% MH was used as the standard medium for the mode of action studies.

[5] = system: human red blood cells (RBC); assay: Hemolytic assay; conditions: read-out: EC50 (peptide concentration producing 50% hemolysis); 1% RBC suspension in PBS pH 7.4, 37°C, 1 h, absorbance at 550 nm; 100% hemolysis = 0.05% Triton X-100
Description: The erythrocytes were pelleted by centrifugation at 450×g for 10 min and washed three times with phosphate-buffered saline (PBS; 320 mOsm, pH 7.4). The cell pellet was resuspended in 4 ml PBS and adjusted to a suspension giving 10% RBC. The test was performed in a 96 well U-shaped microtiter plate (Nunclon™ Surface, No. 163320; Nagle Nunc Int., Roskilde, Denmark), in which 50 µl peptide were incubated with 40 µl PBS and 10 µl RBC suspension. The synthetic peptides were tested at final concentrations ranging from 0.2 to 100 µM. After incubation in a shaker at 37°C for 1 h, the plate was centrifuged at 200×g for 5 min. The supernatants (60 µl) were carefully transferred to a new flat-bottomed polycarbonate microtiter plate (Nunc™ No. 269620, Nagle Nunc Int., Roskilde, Denmark), and absorbance was measured at 550 nm. Baseline hemolysis and 100% hemolysis were defined as the amount of hemoglobin released in the presence of PBS and 0.05% Triton X-100 (Sigma-Aldrich, Saint Louis, MO, USA), respectively. The EC50 value was taken as the mean concentration of peptide producing 50% hemolysis.

Compound | incubation time after which damage of the membrane was induced (E. coli HB101 [1]) | MIC C. glutamicum ATCC 13032 (C. glutamicum ATCC 13032) | MIC S. aureus ATCC 9144 (S. aureus ATCC 9144) | MIC E. coli ATCC 25922 (E. coli ATCC 25922) | IC50 B. cinerea 101 (B. cinerea 101; lowest concentration tested giving less than 50% visible growth vs growth control, potato dextrose medium, 20°C, 48 h, three individual experiments) | MBC against Gram-negative bacteria (Gram-negative bacteria) | time to kill all the bacteria (E. coli HB101 [2]) | reduction of light emitted [3] | IC50 (S. cerevisiae spp.) | MIC P. aeruginosa ATCC 27853 (P. aeruginosa ATCC 27853) | MIC E. coli HB101 (E. coli HB101 [4]; lowest concentration with no visible bacterial growth after 24 h, 37°C, 2.5×10^5 cells/mL, representative of three individual experiments) | MIC against E. coli HB101 (figure legend) (E. coli HB101 [4]; value used for mode of action studies) | IC50 (C. albicans ATCC 10231) | IC50 (B. cinerea 101; 101, 48 h) | change of antimicrobial activity against E. coli by varying the MH concentration (E. coli) | EC50 [5]
CC[C@H](C)[C@H](NC(=O)CNC(=O)[C@H](CCC(=O)O)NC(=O)[C@H](CO)NC(=O)[C@@H](NC(=O)[C@H](CCCNC(=N)N)NC(=O)[C@H](CCCCN)NC(=O)[C@H](CCCCN)NC(=O)[C@H](C)NC(=O)[C@H](CO)NC(=O)[C@H](CC(N)=O)NC(=O)[C@H](CCC(=O)O)NC(=O)[C@H](CC(C)C)NC(=O)[C@H](CCCCN)NC(=O)[C@H](CCCCN)NC(=O)[C@H](C)NC(=O)[C@@H](NC(=O)[C@H](CCCCN)NC(=O)[C@H](CO)NC(=O)[C@H](CC(C)C)NC(=O)[C@H](Cc1c[nH]c2ccccc12)NC(=O)[C@@H](N)CO)[C@@H](C)O)[C@@H](C)CC)C(=O)N[C@@H](C)C(=O)N[C@H](C(=O)N[C@@H](C)C(=O)N[C@H](C(=O)N[C@@H](CCC(N)=O)C(=O)NCC(=O)NCC(=O)N1CCC[C@H]1C(=O)N[C@@H](CCCNC(=N)N)C(=O)O)[C@@H](C)CC)[C@@H](C)CC [Cecropin P1, reference compound] (H-SWLSKTAKKLENSAKKRISEGIAIAIQGGPR-OH; N-terminus and C-terminus assumed) | 5 min | 0.4 to 1.6 µM | >100 µM | 0.8 to 1.6 µM | 50 µM | 1 to 2 µM | approximately 15 min | 60% | 6.3 µM | 0.8 to 1.6 µM | 0.8 to 1.6 µM | 1 µM (≈ 3.34 µg/mL) | 12.5 µM | – | – | –
CC[C@H](C)[C@H](NC(=O)[C@H](CCCNC(=N)N)NC(=O)[C@@H]1CCCN1C(=O)[C@@H]1CCCN1C(=O)[C@H](CC(C)C)NC(=O)[C@H](CCCNC(=N)N)NC(=O)[C@@H]1CCCN1C(=O)[C@@H]1CCCN1C(=O)[C@H](Cc1ccccc1)NC(=O)[C@H](Cc1ccccc1)NC(=O)[C@@H]1CCCN1C(=O)[C@@H]1CCCN1C(=O)[C@@H]1CCCN1C(=O)[C@H](CCCNC(=N)N)NC(=O)[C@@H]1CCCN1C(=O)[C@H](CCCNC(=N)N)NC(=O)[C@@H]1CCCN1C(=O)[C@H](CC(C)C)NC(=O)[C@H](Cc1ccc(O)cc1)NC(=O)[C@@H]1CCCN1C(=O)[C@@H]1CCCN1C(=O)[C@H](CCCNC(=N)N)NC(=O)[C@@H]1CCCN1C(=O)[C@H](CCCNC(=N)N)NC(=O)[C@H](CCCNC(=N)N)NC(=O)[C@@H](N)CCCNC(=N)N)C(=O)O [PR39(1–26), reference compound] (H-RRRPRPPYLPRPRPPPFFPPRLPPRI-OH; N-terminus and C-terminus assumed) | – | 0.4 µM (≈ 1.29 µg/mL) | 50 µM (≈ 161 µg/mL) | 0.8 to 1.6 µM | – | – | – | – | 12.5 µM | 3.1 to 6.3 µM | – | – | 12.5 µM | 12.5 µM | did not change the antimicrobial activity | –
mellitin B: hemolytic control peptide purchased from Sigma-Aldrich | – | – | – | – | – | – | – | – | – | – | – | – | – | – | – | 2 µM
